# Values of other authors, collected in patent US7361646B2, “Methods for treating gastroesophageal reflux disease” (Corcept Therapeutics, Inc., priority 2002, dated 2008).
# How the values were obtained:
# [1] = in one study (Kawai)
# [2] = target: T1, progesterone receptor (Homo sapiens, UniProt P06401); conditions: result in words
# T1 sequence (P06401 1-933): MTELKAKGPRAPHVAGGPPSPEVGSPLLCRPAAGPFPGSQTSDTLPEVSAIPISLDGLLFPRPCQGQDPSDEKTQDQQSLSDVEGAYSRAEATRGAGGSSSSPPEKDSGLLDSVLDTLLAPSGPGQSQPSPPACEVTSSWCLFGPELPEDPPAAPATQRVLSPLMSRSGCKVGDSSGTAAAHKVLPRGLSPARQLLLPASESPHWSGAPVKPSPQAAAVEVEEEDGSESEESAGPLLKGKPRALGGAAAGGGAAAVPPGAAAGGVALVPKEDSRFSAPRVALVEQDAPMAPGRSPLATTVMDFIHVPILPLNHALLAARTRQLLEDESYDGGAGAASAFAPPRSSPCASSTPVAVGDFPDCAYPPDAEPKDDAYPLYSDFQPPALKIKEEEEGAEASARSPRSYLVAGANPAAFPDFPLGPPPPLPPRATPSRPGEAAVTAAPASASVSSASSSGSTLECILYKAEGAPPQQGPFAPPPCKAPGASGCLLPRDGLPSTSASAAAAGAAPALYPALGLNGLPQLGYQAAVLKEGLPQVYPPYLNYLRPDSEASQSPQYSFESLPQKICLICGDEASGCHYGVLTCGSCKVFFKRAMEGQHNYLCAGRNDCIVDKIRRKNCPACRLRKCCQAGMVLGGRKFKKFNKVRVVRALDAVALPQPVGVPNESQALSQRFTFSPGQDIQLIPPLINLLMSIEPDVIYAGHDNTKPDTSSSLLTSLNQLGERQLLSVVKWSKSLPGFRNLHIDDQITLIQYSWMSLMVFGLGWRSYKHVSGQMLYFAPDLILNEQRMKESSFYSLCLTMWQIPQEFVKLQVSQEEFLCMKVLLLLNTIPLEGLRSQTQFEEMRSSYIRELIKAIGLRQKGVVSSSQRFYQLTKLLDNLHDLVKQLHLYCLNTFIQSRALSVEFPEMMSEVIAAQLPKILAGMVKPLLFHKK
# [3] = target: T2, glucocorticoid (GR) receptors (Homo sapiens, UniProt P04150); conditions: result in words
# T2 sequence (P04150 1-777): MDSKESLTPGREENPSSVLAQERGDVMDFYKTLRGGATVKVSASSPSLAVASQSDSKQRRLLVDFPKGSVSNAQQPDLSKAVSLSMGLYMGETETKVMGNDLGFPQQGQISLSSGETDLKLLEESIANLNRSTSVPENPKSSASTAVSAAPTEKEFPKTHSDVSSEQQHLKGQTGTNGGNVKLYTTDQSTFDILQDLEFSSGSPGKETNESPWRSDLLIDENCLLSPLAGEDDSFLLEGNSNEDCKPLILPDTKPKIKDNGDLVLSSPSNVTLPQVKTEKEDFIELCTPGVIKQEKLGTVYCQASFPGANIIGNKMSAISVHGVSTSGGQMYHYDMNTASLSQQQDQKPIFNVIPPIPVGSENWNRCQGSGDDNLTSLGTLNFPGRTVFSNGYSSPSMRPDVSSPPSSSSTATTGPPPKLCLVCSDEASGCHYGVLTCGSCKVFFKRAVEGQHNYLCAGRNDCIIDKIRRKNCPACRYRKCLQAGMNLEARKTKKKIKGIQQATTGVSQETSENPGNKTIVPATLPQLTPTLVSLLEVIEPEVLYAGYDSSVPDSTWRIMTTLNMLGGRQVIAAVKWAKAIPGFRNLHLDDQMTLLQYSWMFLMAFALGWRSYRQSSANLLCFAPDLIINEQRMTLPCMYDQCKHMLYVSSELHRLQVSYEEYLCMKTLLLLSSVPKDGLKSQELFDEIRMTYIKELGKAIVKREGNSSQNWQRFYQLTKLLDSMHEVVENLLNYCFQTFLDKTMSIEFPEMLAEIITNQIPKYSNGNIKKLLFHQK
# [4] = target: T3, Mineralocorticoid receptors (MRs) (Homo sapiens, UniProt P08235); conditions: MR versus GR
# T3 sequence (P08235 1-984): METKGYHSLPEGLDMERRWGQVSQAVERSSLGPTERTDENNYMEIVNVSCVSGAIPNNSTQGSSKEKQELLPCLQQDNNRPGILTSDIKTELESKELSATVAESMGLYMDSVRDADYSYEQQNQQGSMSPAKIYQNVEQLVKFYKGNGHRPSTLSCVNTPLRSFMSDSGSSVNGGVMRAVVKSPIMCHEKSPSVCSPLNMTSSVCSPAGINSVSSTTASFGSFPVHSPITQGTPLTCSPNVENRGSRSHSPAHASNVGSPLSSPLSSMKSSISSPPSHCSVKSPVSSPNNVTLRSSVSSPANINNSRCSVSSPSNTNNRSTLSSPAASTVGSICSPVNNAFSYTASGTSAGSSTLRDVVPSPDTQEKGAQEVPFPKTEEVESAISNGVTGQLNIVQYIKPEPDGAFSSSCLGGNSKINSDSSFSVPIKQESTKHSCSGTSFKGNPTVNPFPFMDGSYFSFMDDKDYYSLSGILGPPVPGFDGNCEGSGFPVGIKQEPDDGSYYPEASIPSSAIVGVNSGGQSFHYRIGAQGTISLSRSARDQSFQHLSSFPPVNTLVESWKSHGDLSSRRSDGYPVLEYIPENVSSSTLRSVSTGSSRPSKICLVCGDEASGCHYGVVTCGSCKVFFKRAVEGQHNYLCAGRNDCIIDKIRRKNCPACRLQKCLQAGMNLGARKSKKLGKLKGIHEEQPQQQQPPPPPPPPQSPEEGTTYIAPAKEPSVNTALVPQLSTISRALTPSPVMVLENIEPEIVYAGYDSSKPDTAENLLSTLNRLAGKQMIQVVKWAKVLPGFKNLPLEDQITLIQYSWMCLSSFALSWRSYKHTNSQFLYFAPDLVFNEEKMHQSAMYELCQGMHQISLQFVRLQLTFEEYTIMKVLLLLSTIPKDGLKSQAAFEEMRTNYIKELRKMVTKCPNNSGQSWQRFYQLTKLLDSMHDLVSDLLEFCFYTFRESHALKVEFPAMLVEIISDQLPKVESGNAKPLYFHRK
affinity of MRs for cortisol relative to GRs for glucocorticoids [4],SMILES,share of the daily dose excreted in the urine [1],progesterone receptor antagonist effect [2],GR antagonist effect [3]
–,"CC#C[C@]1(O)CC[C@H]2[C@@H]3CCC4=CC(=O)CCC4=C3[C@@H](c3ccc(N(C)C)cc3)C[C@@]21C [Mifepristone, (11β,17β) 11[4(dimethylamino)phenyl]-17hydroxy-17(1 propynyl)estra-4,9dien-3one]",less than 0.5 % of the daily dose,powerful antagonist,powerful antagonist
ten-fold higher affinity,C[C@]12CCC(=O)C=C1CC[C@@H]1[C@@H]2[C@@H](O)C[C@@]2(C)[C@H]1CC[C@]2(O)C(=O)CO [cortisol],–,–,–
–,"CC#C[C@]1(O)CC[C@H]2[C@@H]3CCC4=CC(=O)CCC4=C3[C@@H](c3ccc(OCCN(C)C)cc3)C[C@@]21C [RU009, 11β-(4-dimethylaminoethoxyphenyl)-17α-propynyl-17β-hydroxy-4,9-estradien-3-one]",–,–,shown to have GR antagonist effects
